Test results: ChEMBL document CHEMBL4325925, “Privileged Structures and Polypharmacology within and between Protein Families” (ACS Med Chem Lett, 2018)

Columns and labels:
[1] = biological target: T1, Pirin (Homo sapiens, UniProt O00625); assay: Displacement of 6-amino-9-(2-((4-((2-((6-((5-(2,3-dihydrobenzo[b][1,4]dioxine-6-carboxamido)-2-methylphenyl)carbamoyl)quinolin-2-yl)oxy)ethyl)amino)-4-oxobutyl)(methyl)carbamoyl)phenyl)-3-imino-3H-xanthene-4,5-disulfonic acid from pirin (unknown origin) by fluorescence polarization assay
T1 sequence (O00625 whole entry): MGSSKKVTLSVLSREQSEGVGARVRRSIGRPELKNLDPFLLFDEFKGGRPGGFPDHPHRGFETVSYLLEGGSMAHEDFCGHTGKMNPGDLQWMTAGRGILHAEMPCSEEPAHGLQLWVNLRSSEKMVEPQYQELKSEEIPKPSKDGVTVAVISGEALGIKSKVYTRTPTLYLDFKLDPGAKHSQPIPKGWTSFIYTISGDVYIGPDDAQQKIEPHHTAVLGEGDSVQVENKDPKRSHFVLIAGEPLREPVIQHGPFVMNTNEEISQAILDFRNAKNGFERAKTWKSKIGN

[2] = biological target: Serine/threonine-protein kinase B-raf (Homo sapiens, UniProt P15056, V600E); assay: Inhibition of recombinant human GST-tagged BRAF V600E mutant expressed in baculovirus expression system
[3] = biological target: Serine/threonine-protein kinase B-raf (Homo sapiens, UniProt P15056); assay: Inhibition of recombinant human full length GST-tagged BRAF expressed in baculovirus expression system
[4] = biological target: T2, Serine/threonine-protein kinase TAO1 (Homo sapiens, UniProt Q7L7X3); assay: Inhibition recombinant human TAOK1 (1 to 356 residues) after 5 mins in presence of [33P] ATP by Topcount method
T2 sequence (Q7L7X3 whole entry): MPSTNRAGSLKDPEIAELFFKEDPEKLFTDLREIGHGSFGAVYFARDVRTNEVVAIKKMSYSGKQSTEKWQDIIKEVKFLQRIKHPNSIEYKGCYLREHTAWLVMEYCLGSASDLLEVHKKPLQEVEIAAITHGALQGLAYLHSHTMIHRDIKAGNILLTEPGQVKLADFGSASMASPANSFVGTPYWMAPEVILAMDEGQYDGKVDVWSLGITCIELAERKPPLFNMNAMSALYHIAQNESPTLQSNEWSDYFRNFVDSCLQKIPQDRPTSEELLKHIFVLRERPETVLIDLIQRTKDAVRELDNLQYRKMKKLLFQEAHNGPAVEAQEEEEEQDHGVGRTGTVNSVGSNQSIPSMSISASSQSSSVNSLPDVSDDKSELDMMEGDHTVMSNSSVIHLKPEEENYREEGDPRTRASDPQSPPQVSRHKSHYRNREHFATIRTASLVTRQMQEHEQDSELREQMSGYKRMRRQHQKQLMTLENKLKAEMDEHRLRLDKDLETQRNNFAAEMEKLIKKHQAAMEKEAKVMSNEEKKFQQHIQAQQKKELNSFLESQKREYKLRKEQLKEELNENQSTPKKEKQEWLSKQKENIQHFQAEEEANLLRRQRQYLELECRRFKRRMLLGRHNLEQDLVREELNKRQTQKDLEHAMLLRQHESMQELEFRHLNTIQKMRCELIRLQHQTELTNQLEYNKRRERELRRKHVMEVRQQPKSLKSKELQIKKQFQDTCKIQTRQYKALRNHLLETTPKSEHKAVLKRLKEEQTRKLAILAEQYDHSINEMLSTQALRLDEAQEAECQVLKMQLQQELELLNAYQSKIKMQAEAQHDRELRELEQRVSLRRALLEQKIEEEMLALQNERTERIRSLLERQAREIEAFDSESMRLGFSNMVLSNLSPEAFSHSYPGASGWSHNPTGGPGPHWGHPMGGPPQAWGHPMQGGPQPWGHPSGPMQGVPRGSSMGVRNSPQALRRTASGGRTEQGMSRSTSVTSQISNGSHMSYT

[5] = biological target: Homeodomain-interacting protein kinase 2 (Homo sapiens, UniProt Q9H2X6); assay: Inhibition recombinant human HIPK2 (165 to 564 residues) after 5 mins in presence of [33P] ATP by Topcount method
Sequence of Homeodomain-interacting protein kinase 2 (Q9H2X6 whole entry, the tested form may be a part): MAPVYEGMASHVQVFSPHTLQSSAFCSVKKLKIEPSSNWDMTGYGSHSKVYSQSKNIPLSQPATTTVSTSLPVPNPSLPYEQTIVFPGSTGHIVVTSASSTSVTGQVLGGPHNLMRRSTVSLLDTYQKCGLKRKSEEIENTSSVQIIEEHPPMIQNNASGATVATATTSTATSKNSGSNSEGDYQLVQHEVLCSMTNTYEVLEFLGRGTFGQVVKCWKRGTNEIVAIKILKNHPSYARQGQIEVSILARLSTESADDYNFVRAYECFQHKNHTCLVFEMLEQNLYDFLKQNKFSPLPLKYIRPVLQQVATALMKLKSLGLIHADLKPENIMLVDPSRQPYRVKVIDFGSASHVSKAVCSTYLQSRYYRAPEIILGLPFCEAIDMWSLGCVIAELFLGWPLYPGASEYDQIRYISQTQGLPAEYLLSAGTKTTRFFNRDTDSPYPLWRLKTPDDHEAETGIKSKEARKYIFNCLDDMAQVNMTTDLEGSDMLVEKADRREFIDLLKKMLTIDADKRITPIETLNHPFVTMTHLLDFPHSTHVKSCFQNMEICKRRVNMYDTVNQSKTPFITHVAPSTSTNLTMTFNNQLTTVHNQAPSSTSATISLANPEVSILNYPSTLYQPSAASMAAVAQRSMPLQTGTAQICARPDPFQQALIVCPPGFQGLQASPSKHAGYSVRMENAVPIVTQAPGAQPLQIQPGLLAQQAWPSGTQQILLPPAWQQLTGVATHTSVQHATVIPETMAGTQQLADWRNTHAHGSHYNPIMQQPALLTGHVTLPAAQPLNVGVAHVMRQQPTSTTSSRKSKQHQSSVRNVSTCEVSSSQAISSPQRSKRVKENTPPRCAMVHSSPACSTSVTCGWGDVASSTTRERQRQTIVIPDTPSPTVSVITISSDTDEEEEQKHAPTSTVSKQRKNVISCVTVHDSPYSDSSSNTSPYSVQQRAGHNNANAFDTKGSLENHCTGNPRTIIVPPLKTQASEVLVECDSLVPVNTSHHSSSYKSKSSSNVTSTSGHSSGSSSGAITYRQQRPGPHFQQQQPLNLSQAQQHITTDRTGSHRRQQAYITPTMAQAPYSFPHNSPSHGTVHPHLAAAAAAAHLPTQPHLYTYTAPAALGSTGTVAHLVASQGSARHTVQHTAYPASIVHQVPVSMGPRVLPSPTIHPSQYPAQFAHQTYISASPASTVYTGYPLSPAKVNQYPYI

Sequence of Serine/threonine-protein kinase B-raf (Homo sapiens, UniProt P15056) (P15056 whole entry, the tested form may be a part): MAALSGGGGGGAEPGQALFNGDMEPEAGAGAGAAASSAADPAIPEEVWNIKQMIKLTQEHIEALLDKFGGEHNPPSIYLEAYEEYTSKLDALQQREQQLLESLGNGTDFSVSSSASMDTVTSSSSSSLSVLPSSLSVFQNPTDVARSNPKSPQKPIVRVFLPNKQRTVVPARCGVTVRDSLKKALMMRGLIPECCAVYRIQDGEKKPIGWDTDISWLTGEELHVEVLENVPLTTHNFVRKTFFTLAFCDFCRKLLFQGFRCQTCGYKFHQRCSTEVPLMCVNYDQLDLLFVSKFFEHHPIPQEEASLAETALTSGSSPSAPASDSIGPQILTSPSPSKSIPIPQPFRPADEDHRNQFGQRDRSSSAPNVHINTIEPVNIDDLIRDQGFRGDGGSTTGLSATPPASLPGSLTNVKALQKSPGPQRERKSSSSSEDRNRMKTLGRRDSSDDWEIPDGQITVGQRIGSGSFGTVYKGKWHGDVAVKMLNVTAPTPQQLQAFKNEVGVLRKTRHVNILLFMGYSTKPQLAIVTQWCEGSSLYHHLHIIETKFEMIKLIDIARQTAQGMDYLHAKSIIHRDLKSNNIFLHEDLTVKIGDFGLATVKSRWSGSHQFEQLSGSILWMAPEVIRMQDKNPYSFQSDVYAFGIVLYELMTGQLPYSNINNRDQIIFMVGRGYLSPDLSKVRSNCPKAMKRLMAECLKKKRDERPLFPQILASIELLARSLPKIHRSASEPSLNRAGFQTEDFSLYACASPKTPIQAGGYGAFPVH
Sequence of Serine/threonine-protein kinase B-raf (Homo sapiens, UniProt P15056, V600E) (P15056 2-766 V600E limits assumed): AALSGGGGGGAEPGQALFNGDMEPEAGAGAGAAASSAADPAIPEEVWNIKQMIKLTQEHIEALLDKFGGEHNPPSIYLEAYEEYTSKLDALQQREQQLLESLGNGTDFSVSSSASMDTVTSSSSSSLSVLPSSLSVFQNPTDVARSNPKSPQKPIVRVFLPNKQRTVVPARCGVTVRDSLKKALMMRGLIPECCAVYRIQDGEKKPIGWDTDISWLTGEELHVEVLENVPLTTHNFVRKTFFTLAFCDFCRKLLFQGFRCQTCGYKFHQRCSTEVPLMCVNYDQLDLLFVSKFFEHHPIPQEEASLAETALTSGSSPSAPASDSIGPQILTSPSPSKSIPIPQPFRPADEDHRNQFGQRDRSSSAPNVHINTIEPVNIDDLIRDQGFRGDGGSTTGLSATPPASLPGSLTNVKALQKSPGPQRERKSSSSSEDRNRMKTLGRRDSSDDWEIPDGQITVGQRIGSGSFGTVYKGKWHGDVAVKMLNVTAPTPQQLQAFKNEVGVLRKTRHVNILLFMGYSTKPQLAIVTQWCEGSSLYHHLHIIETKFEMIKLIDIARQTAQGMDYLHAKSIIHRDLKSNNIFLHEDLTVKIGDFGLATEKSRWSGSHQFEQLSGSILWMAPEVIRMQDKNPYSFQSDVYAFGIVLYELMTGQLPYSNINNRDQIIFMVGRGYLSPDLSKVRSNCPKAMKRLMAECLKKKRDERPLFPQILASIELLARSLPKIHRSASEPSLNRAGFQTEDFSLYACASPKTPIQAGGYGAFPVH

Compound | IC50 [1] [µM] | further results
Cc1ccc(NC(=O)c2cccc(C(C)(C)C#N)c2)cc1Nc1ccc2ncn(C)c(=O)c2c1 | > 10 | 
N#Cc1c(Oc2ccc(F)c(NC(=O)Cc3cccc(C(F)(F)F)c3)c2)ccc2nc(NC(=O)C3CC3)sc12 | > 10 | IC50 [2]: 0.002 µM; IC50 [3]: 0.008 µM
c1cnc2ncn(-c3cc(Nc4ccc(OCCN5CCCCC5)cn4)ncn3)c2c1 |  | IC50 [4]: 0.49 µM; IC50 [5]: 0.03 µM
CC(C)(C)N1CCN(Cc2ccc3cc(C(=O)Nc4cc(NC(=O)c5ccc6c(c5)OCCO6)ccc4Cl)ccc3n2)CC1 | 0.033 | IC50 [3]: > 10 µM
OCCn1cc(-c2ccc3c(c2)CC/C3=N\O)c(-c2ccncc2)n1 | > 10 | 
CC(C)(C)c1nc(-c2cccc(NS(=O)(=O)c3c(F)cccc3F)c2F)c(-c2ccnc(N)n2)s1 [DABRAFENIB] | > 10 | 
CCCS(=O)(=O)Nc1ccc(F)c(C(=O)c2c[nH]c3ncc(Cl)cc23)c1F [PLX-4720] | 0.67 | 
Cn1c(Nc2ccc(C(F)(F)F)cc2)nc2cc(Oc3ccnc(-c4ncc(C(F)(F)F)[nH]4)c3)ccc21 [RAF-265] | > 10 | 
